pEC50, pIC50: −log10 of the molar value. “Also recorded” adds a separate entry of the source.

Results on nine compounds are retold here after patent US10494602B1, “Functional astrocytes and cortical neurons from induced pluripotent stem cells and methods of use thereof” (The Board of Trustees of the Leland Stanford Junior …, priority 2015, dated 2019).

The target in experiment [1] is element-binding protein (CBP) (Homo sapiens, UniProt Q92793). As to conditions: cited from earlier work.
In experiment [2] the test system is Wnt processing and secretion. The following applies: cell-free assay; read-out: 1050, inhibition of Wnt processing and secretion; cited from earlier work.
Experiment [3] concerns Wnt-stimulated cellular responses. As to conditions: cited from earlier work.
The subject of experiment [4] is PORCN. The following applies: read-out: EC50, Porcn inhibition; cited from earlier work.
The test system of a further experiment is Wnt signaling. The following applies: TM3 cells; read-out: IC50, inhibition of Wnt signaling; cited from earlier work.
Another experiment relates to BMP signaling. The following applies: cited from earlier work.
In experiment [5] the test system is voltage-gated Na+ channels. In kind it is cell-based, human.
Another experiment concerns the target T1, TNKS2 (Homo sapiens, UniProt Q9H2K2).
T1 sequence (Q9H2K2 1-1166): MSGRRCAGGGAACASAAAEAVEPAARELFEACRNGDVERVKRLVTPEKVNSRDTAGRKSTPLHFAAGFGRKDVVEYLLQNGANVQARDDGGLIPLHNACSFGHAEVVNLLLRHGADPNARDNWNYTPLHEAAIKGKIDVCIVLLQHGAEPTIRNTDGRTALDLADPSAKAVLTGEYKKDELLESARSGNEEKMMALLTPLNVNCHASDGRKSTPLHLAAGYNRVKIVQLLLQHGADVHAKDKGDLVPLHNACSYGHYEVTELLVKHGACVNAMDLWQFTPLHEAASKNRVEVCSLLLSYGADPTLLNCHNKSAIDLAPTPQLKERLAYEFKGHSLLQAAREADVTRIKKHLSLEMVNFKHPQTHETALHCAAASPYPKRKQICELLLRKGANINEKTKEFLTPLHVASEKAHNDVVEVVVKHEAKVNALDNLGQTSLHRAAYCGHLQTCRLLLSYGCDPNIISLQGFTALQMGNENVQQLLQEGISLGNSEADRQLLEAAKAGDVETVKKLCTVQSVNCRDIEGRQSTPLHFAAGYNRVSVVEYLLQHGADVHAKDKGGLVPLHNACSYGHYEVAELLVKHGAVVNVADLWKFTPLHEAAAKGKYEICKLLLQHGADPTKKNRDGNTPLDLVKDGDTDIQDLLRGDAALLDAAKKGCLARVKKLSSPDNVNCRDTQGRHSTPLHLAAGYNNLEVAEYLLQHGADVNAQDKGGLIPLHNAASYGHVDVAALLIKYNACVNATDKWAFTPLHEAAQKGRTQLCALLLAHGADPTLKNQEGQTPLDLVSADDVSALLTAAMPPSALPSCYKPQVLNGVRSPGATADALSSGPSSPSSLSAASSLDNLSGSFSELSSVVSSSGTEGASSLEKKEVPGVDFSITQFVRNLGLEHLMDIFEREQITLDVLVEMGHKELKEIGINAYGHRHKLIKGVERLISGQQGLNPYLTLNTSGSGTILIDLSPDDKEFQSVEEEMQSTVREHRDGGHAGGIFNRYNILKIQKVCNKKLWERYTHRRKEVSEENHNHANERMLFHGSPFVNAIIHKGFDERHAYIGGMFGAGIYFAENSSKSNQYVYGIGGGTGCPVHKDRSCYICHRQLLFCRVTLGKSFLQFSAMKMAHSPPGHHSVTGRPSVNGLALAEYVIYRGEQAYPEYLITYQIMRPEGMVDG
The following applies: cited from earlier work.

The subject of experiment [6] is spontaneous synaptic activity (EPSCs) of neurons in hCS slices. In words: Spontaneous EPSCs in acute hCS slice preparation (whole cell recording). In kind it is cell-based, human. As to conditions: kynurenic acid 1 mM bath application; n=6 cells, P=0.0008. Here is the method: hCS were removed from Neurobasal-B27 media, quickly fixed to a block of 4% agarose, and covered in ice-cold oxygenated (95% 02 and 5% CO2) ACSF containing 126 mM NaCl, 2.5 mM KCl, 1.25 mM NaH2PO4, 2 mM MgCl2, 2 mM CaCl2), 26 mM NaHCO3and 10 mM glucose. 250 μm thick slices were cut using a Leica VT1200 vibrating microtome. After slicing, sections were moved to continuously oxygenated warm (˜32° C.) ACSF. Slices were incubated in warm ACSF for at least one hour prior to recording.
Whole cell patch clamp recordings were made at 22-25° C. Slices were superfused at a rate of 3 ml/min. Patch-clamp recordings were made using a MultiClamp 700A amplifier with Clampex 10.3 software. 3-5 MO borosilicate glass recording electrodes were filled with internal solution containing 120 mM potassium gluconate, 11 mM KCl, 1 mM MgCl2, 1 mM CaCl2, 10 mM HEPES, 1 mM EGTA, pH adjusted to 7.4 with KOH (290 mOsm). To determine if EPSCs recorded in voltage clamp are glutamate dependent, the glutamate receptor blocker kynurenic acid (1 mM) was added to the bath solution following at minimum 5 min of baseline recording. Evoked responses were produced by extracellular monopolar tungsten electrode placed 100-300 μm from the whole cell recording. […]

Experiment [7] relates to PORCN. The following applies: HEK293 cells; read-out: IC50, Wnt3A-mediated activation of a multimerized TCF-binding site driving luciferase; cited from earlier work.

Chain of element-binding protein (CBP) (Q92793 whole entry): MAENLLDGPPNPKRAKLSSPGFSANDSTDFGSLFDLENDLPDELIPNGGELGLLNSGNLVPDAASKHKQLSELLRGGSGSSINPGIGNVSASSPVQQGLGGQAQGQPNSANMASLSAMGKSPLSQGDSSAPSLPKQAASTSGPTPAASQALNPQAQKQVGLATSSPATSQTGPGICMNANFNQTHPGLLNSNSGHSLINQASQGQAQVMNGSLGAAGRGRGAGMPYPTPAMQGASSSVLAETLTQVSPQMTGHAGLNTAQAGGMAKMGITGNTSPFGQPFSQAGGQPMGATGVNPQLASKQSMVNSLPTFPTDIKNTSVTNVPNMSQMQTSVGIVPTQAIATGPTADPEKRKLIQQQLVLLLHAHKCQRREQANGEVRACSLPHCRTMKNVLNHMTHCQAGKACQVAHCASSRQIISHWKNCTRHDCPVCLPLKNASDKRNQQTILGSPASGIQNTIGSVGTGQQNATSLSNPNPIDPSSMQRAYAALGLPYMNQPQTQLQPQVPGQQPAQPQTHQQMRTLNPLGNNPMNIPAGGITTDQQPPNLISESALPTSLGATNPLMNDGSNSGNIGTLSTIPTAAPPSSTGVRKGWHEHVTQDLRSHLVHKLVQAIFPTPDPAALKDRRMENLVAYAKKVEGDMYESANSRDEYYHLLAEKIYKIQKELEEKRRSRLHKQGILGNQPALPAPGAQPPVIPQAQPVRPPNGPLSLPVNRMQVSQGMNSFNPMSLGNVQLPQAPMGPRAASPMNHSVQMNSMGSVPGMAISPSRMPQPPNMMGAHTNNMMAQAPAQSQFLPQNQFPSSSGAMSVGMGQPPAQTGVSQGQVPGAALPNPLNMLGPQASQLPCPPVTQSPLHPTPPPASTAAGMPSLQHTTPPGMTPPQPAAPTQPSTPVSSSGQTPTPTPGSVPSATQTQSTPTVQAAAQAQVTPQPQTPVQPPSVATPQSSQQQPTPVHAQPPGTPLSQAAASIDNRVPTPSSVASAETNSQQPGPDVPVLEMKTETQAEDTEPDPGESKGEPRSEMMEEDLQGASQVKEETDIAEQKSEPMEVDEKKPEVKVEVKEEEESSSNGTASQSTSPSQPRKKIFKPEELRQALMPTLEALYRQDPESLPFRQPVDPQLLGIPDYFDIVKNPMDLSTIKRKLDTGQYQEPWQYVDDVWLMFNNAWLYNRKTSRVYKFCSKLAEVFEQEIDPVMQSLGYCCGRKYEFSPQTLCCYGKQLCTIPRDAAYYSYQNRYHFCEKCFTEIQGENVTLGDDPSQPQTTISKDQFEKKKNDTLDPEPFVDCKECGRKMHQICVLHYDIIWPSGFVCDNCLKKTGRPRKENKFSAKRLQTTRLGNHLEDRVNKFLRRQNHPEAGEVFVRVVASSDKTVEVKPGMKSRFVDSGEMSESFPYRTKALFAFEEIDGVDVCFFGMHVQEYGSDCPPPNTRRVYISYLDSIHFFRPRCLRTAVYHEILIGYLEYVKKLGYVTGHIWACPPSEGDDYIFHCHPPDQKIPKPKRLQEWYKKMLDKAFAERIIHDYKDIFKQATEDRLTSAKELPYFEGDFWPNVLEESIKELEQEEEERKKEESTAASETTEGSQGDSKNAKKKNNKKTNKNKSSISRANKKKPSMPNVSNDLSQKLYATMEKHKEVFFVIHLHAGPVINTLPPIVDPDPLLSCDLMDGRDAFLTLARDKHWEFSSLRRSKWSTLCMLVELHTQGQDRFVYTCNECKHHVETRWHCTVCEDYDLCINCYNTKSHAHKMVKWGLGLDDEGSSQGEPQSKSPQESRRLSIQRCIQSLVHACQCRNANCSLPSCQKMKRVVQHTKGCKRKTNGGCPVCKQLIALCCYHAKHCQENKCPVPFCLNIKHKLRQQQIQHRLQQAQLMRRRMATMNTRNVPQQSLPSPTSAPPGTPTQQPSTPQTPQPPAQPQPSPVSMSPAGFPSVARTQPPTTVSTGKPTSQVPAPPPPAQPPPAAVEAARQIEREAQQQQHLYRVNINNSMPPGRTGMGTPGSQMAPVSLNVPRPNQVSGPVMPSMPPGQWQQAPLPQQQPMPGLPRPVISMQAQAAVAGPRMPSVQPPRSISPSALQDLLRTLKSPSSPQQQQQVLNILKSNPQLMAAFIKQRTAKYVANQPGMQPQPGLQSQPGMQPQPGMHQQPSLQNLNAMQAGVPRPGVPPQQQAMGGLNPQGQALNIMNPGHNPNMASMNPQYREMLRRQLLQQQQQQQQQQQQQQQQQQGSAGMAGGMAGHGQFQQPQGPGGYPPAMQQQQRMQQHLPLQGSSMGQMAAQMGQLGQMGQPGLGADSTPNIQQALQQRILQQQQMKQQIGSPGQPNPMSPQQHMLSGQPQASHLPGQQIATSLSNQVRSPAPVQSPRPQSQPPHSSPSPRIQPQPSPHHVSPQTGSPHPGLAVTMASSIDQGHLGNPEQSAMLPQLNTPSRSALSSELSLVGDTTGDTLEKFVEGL

With `O=C1[C@H](Cc2ccc(O)cc2)N2C(=O)CCN(C(=O)NCc3ccccc3)[C@H]2CN1Cc1cccc2ccccc12` [ICG-001], in experiment [1], the pIC50 is 5.52.
Regarding `Cc1ccc2nc(NC(=O)CSc3nc4c(c(=O)n3-c3ccccc3)SCC4)sc2c1` [IWP-2], the pIC50 in experiment [2] was 7.57. Further, in [3], the “effect against Wnt-stimulated cellular responses” value is given as “no effect”.
In the case of `O=C(CSc1nc2c(c(=O)n1-c1ccccc1)SCC2)Nc1ccc(-c2ccccc2)cn1` [IWP-L6], the pEC50 in the experiment on PORCN [4] was 9.30.
For the compound `Cc1cc(-c2ncc(CC(=O)Nc3ccc(-c4cnccn4)cn3)cc2C)ccn1` [LGK-974], the pIC50 with Wnt signaling was 9.40.
For `NC(=O)c1ccc(-c2nc(-c3ccc4c(c3)OCO4)c(-c3ccccn3)[nH]2)cc1` [SB-431542], the “effect on BMP signaling” value in the experiment on BMP signaling was “no effect”.
Regarding `NC1=N[C@H](O)[C@H]2[C@H]3O[C@]4(O)O[C@@H]([C@@H](O)[C@@]2(N1)[C@@H]4O)[C@]3(O)CO` [TTX, tetrodotoxin], the “block of transient inward voltage-gated Na+ current” value in experiment [5] is reported as “blocks”.
As to `COc1ccc(-n2c(SCCCN3C(=O)c4cccc5cccc(c45)C3=O)nnc2-c2ccncc2)cc1` [WIKI4], the pIC50 on TNKS2 is 7.82.
Turning to `O=C(O)c1cc(=O)c2ccccc2[nH]1` [kynurenic acid], in experiment [6], the “spontaneous synaptic activity (EPSCs) in sliced hCS” value is reported as “significantly reduced; also recorded: blocked”.
Consider Wnt-059 (C59), for which, in the experiment with PORCN [7], the pIC50 was 10.13.

In general, pEC50 refers to the EC50 on a negative log10 scale, so that one unit is a factor of ten.
